The source made the active and inactive calls.
Columns and labels:
Cytochrome P450 2C9 = Cytochrome P450 2C9 (Homo sapiens, UniProt P11712)
[1] = HepG2 cell cytotoxicity, dose response, cytotoxicity control, plate reader, dry powder samples (AID 1159569); type: functional, cell-based;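 also: inhibitor potency with signal falling toward the positive control level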
[2] = P. falciparum ATP4 D1247Y mutant growth inhibitors, dose response, NITD609-resistant line, SYBR Green, dry powder (AID 1159571); type: functional, cell-based;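 also: parasites synchronized at ring stage by sorbitol before testing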
[3] = P. falciparum Dd2 growth inhibitors, dose response, SYBR Green, cherry-picked samples (AID 1159567); type: functional, cell-based
[4] = P. falciparum Dd2 growth inhibitors, dose response, SYBR Green, dry powder samples (AID 1159566); type: functional, cell-based;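 also: potency for growth inhibition with lower SYBR green DNA signal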
[5] = P. falciparum 3D7-ScDHODH growth inhibitors, dose response, SYBR Green, dry powder samples (AID 1159570); type: functional, cell-based;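 also: parasite growth measured after 72 hours of compound exposure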
[6] = microbe, parasite or virus in culture; type: functional; conditions: Mycobacterium tuberculosis
[7] = tested on: Streptococcus sp. 'group A'; assay: growth inhibition of control SK(-) GAS strain, dose response, counter-screen for streptokinase expression inhibitor project, luminescence, kanamycin, BacTiterGlo, confirmation (AID 1900); type: functional, organism-based
Streptococcus = assay: Group A Streptococcus viability loss, dose response, counter-screen for streptokinase expression inhibitor project, luminescence, BacTiterGlo (AID 1915); type: functional, organism-based;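 also: potency for reduction of bacterial viability or growth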
Streptokinase A = biological target: T1, Streptokinase A (Streptococcus pyogenes serotype M1, UniProt P10520); assay: S. pyogenes streptokinase expression inhibitors, potency, dose response, plasminogen activation absorbance, OD405 (AID 1914); type: functional, Streptococcus pyogenes M1 GAS;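 also: secreted streptokinase activity via plasminogen activation per viability signal from cell pellet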
T1 sequence (P10520 whole entry): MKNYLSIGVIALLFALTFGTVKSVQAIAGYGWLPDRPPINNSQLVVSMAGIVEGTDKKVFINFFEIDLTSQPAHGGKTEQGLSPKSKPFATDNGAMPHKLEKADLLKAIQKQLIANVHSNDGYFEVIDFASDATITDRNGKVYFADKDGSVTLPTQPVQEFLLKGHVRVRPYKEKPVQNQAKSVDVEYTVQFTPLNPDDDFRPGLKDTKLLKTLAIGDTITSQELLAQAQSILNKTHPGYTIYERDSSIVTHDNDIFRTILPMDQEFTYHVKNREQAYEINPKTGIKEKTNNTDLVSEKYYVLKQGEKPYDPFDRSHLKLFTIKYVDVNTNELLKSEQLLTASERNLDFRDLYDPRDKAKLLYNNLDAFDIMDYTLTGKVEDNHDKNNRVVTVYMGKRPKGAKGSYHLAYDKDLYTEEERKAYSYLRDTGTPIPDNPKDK

INS1 = assay: beta cell apoptosis inhibitors, cytokine rescue, dose response, luminescence, retest (AID 449756); type: functional, cell-based; conditions: Rattus norvegicus, INS1;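 also: cell death triggered by IL-1 beta plus TNF-alpha plus IFN-gamma mixture; protective hits raise ATP signal compared with cytokine alone wells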
Large T antigen = Large T antigen (Simian virus 40, UniProt P03070); type: functional, Betapolyomavirus macacae;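 also: Confirmatory-stage PubChem screen for compounds that inhibit SV40 T antigen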
Sequence of Large T antigen (P03070 whole entry): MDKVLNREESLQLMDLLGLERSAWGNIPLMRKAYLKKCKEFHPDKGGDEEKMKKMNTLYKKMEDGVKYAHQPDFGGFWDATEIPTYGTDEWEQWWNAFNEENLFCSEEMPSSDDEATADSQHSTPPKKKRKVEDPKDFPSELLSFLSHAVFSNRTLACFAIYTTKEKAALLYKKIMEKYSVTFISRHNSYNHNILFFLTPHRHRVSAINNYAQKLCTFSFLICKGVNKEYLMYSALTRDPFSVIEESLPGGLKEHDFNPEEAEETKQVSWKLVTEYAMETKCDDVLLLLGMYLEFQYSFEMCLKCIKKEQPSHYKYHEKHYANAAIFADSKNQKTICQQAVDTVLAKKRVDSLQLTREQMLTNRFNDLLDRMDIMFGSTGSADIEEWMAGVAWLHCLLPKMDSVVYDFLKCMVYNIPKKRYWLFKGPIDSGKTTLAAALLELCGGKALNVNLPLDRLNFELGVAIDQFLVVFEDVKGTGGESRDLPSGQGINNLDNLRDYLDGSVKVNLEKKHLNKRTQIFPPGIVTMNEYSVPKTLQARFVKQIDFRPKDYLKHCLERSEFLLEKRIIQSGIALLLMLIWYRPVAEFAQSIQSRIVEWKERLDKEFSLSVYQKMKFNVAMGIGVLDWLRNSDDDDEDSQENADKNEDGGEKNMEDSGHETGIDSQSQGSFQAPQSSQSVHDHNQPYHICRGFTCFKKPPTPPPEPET

[8] = biological target: T2, Ubiquitin-conjugating enzyme E2 N (Homo sapiens, UniProt P61088); type: functional;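 also: Dose-response confirmation in a TR-FRET assay detecting UBC13-driven polyubiquitin chain formation, inhibition measured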
T2 sequence (P61088 whole entry): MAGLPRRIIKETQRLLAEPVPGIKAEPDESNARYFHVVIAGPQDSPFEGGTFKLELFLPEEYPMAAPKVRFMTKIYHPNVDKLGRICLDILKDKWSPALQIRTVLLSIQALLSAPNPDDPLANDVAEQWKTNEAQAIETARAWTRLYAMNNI

[9] = inhibitors of intracellular T. cruzi replication, confirmation, NIH3T3 host cells, beta-gal luminescence (AID 2044); type: functional, cell-based;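 also: intracellular parasites grown in NIH/3T3 mouse fibroblasts as host cells; luminescent beta-galactosidase reporter signal from transgenic T. cruzi replicating inside host cells; inhibitors lower the luminescence signal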
[10] = biological target: T3, Short transient receptor potential channel 4 (Mus musculus, UniProt Q9QUQ5); assay: mouse TRPC4 channel inhibitors, dose response, cell-based, HEK293 TRPC4/mu-opioid, Fluo-4 calcium (AID 434942); type: functional;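 also: potency of inhibitors blocking the TRPC4 calcium response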
T3 sequence (Q9QUQ5 whole entry): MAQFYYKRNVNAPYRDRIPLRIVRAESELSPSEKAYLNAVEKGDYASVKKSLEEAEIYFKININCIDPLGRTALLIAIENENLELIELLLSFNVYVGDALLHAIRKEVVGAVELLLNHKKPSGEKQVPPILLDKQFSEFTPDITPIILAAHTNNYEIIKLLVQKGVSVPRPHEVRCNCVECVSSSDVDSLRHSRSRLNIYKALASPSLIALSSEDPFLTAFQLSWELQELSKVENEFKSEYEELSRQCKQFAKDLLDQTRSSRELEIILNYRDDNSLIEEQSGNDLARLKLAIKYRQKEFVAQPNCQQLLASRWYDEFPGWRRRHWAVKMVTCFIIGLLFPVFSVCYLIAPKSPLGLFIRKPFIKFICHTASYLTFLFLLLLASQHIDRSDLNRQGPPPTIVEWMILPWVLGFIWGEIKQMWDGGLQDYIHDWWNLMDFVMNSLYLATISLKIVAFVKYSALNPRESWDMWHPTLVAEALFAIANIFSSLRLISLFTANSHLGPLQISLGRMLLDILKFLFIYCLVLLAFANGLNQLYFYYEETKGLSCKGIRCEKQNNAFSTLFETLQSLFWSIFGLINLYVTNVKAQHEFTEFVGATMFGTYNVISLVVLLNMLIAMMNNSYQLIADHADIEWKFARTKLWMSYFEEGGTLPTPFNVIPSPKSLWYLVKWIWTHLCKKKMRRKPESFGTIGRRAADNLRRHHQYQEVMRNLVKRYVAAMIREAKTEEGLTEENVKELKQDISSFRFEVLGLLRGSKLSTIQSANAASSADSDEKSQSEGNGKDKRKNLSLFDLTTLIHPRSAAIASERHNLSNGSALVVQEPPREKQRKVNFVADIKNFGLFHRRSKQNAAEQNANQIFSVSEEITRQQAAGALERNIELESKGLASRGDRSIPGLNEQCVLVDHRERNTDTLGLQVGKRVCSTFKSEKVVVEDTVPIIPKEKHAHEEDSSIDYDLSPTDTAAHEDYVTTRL

[11] = cytotoxicity toward NIH3T3 fibroblasts, dose response, counter-screen, cell-based, ATP luminescence, mouse fibroblasts (AID 2010); type: functional;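 also: cells exposed to compound for about 90 hours before reading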
[12] = biological target: Heat shock protein HSP 90-alpha (Homo sapiens, UniProt P07900); type: functional, organism-based
[13] = biological target: T4, DNA repair protein RAD52 homolog (Homo sapiens, UniProt P43351); type: functional, biochemical
T4 sequence (P43351 whole entry): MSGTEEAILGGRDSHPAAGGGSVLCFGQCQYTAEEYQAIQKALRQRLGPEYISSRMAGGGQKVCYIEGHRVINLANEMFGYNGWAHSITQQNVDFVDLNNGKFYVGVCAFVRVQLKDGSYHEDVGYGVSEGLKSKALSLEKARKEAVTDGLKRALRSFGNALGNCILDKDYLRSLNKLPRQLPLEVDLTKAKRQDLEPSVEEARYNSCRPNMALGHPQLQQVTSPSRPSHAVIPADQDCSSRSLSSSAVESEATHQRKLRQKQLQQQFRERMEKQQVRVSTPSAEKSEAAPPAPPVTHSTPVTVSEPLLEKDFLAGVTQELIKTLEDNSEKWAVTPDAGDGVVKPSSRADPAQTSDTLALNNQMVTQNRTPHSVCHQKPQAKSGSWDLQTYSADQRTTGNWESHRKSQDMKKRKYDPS

[14] = ZM109 Env clade C HIV-1 fusion inhibitors, dose response, HeLa effector, CEM target cells, luciferase, cherry-pick (AID 652058); type: functional, cell-based
[15] = inhibitors of clade B AD8 Env fusion, dose response, cell-based, cherry-pick (AID 652062); type: functional;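 also: luciferase signal from cell-cell fusion driven by HIV-1 clade B AD8 Env; potency is for inhibitors of fusion seen as a drop in luminescence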
[16] = inhibitors of HIV Env-driven cell fusion, dose response, cherry-pick (AID 652057); type: functional, cell-based

Sequence of Cytochrome P450 2C9 (P11712 whole entry): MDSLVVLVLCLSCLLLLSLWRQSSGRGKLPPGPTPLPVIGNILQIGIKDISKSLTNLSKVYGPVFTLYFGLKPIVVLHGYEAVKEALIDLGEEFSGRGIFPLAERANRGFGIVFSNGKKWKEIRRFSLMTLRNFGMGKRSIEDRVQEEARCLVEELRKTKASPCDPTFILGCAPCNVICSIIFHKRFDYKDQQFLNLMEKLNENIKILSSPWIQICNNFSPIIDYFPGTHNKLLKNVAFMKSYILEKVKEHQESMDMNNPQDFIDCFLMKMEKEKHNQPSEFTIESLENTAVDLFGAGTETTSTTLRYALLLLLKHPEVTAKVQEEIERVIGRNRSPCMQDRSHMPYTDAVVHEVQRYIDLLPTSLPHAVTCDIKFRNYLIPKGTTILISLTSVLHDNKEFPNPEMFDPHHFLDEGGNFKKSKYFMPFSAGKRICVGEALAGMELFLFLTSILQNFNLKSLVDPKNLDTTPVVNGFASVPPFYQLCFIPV

CN1[C@@H]2CC[C@H]1CC(O)C2 (some centres not stated)
AC50 (Cytochrome P450 2C9): inconclusive

COc1ccc2c3c(n(C)c2c1)[C@@H](CO)N(C(=O)Nc1ccc(F)cc1)CC31CCN(Cc2cccnc2)CC1
AC50 [1]: 31.7 µM (active)
AC50 [2]: 1.12 µM (active)
AC50 [3]: 0.819 µM (active)
AC50 [4]: 0.727 µM (active)
AC50 [5]: 1.37 µM (active)

COc1cnc(-c2ccccn2)nc1Oc1ccc(Cl)c2ccccc12
CC50 [6]: 16.9 µM (active)
EC50 [7]: 1.77 µM (active)
EC50 (Streptococcus): 20.1 µM (inconclusive)
EC50 (Streptokinase A): > 150 µM (not active)
AC50 (INS1): 4.86 µM (active)
IC50 (Large T antigen): 7.48 µM (active)

CC(C)(C)CN1CCNC[C@H]1Cc1cccc2ccccc12
IC50 [8]: > 20 µM (inactive)

Cc1cc(-c2cn3ccccc3n2)c(C)n1-c1ccccc1
EC50 [9]: 1.43 µM (active)
EC50 [10]: 7.5 µM (active)
EC50 [11]: > 30 µM (not active)

CCOC(=O)c1[n-]c2ccccc2c1[N+]#N
AC50 [12]: 0.444 µM (active)
EC50 (Streptokinase A): > 150 µM (not active)

CN1CCN(CCCCOc2ccccc2C=O)CC1
AC50 [13]: 15.8 µM (active)

Cc1cc(C)c2nc(NCCCNC(=S)NCCCN(C)C)c(C#N)cc2c1
IC50 [8]: > 20 µM (inactive)
AC50 [13]: 7.63 µM (active)

Cc1cccc(C)c1N1CCc2c[nH]nc21
EC50 [10]: 7.5 µM (active)

CC(C)(CCc1nc2ccccc2[nH]1)C(=O)O
AC50 (Cytochrome P450 2C9): inconclusive

C[C@H](CO)N1C[C@H](C)[C@H](CN(C)S(=O)(=O)c2ccc(F)cc2)Oc2ncc(/C=C/c3ccccc3)cc2C1=O
AC50 [14]: 13.9 µM (active)
AC50 [15]: 28.3 µM (active)
AC50 [16]: 16.5 µM (active)

O=C(CSc1nc2nncc-2c(O)n1-c1ccccc1Br)NCc1ccccc1Cl
EC50 [10]: 2.99 µM (active)
